These results are taken from PubChem BioAssay AID1645848.

In brackets after ≈: the same amount, converted by molar mass.

For the data set the following is noted: buffer; pH 7.4; 6.0 h; 150.0 µM.
Usually kinetic solubility stands for solubility judged after dilution from a stock solution rather than from solid. Consider `CC(C)(C)OC(=O)N[C@@H](Cc1ccc(OS(=O)(=O)c2cccc3cnccc23)cc1)C(=O)N1CCCN(C(=O)OC(C)(C)C)CC1`, for which the kinetic solubility is less than 1 µg/mL. The compound `COC(=O)c1ccc2nc(NC3=NC(c4[nH]ncc4Cl)C4=C(CCCC4=O)N3)oc2c1` (stereo not drawn) came in with a kinetic solubility of 1.62 µg/mL (≈ 3.69 µM). `CC(C)CNc1ccnc(NCc2csc(-c3ccccc3)n2)n1` registered a kinetic solubility of 35.9 µg/mL (≈ 106 µM).

In turn, `O=[S+]([O-])(Nc1cccc2ccccc12)c1ccc(NCc2ccc(Cl)cc2O)cc1` showed a solubility (kinetic) of less than 1 µg/mL. In turn, `CC1=Nc2cc(C(=O)NCc3ccccc3Cl)ccc2Sc2c(C)ccc(C)c21` gave a kinetic solubility of less than 1 µg/mL. The compound `O=S(=O)(Nc1cccc(C(F)(F)F)c1)c1ccc(NS(=O)(=O)c2ccc3c(c2)OCCO3)cc1` had a solubility (kinetic) of less than 1 µg/mL. In the case of `Cc1ccc(CSCc2ccc(C(=O)NC3CC3)o2)cc1`, the kinetic solubility is more than 44 µg/mL.

In turn, `COc1ccccc1Nc1cnc2ccc(-c3ccc(OC)c(OC)c3)nn12` returned a solubility (kinetic) of less than 1 µg/mL. `CCOC(=O)c1ccc(N2C(=O)c3n[nH]c(-c4cccs4)c3C2c2ccc(OCC)cc2)cc1` (stereo not drawn) yielded a solubility (kinetic) of less than 1 µg/mL. The compound `O=C(c1nc(-c2cccnc2)c2ccccn12)N1CCN(c2ncccn2)CC1` came in with a solubility (kinetic) of 9.57 µg/mL (≈ 24.8 µM). Compound `O=C1CCCC2=C1C1(CCCC1)N=C(Nc1nc3ccccc3o1)N2` showed a solubility (kinetic) of less than 1 µg/mL. With `CC(=O)Nc1ccc(OCc2cn(CC(=O)c3ccc(O)cc3)nn2)cc1`, the kinetic solubility amounted to 18.7 µg/mL (≈ 51 µM). The compound `NC(=O)C1CCN(c2nc(-c3ccc([N+](=O)[O-])cc3)cs2)CC1` registered a solubility (kinetic) of 1.7 µg/mL (≈ 5.1 µM). `COc1cc(-c2cn(C)c(=O)c3cnccc23)c(OC)cc1CN(C)C` yielded a solubility (kinetic) of more than 52 µg/mL. The compound `Cc1ccc(S(=O)(=O)Nc2cc3c(cc2C(=O)Nc2nc(-c4ccccc4)cs2)OCO3)cc1` gave a kinetic solubility of less than 1 µg/mL. In turn, `Nc1cc2nc3ccccc3oc-2cc1=O` registered a solubility (kinetic) of 17.9 µg/mL (≈ 84.6 µM). `CCc1ccc(-n2nnc(-c3nsc(NC(=O)c4ccccc4Cl)n3)c2C)cc1`: the solubility (kinetic) was less than 1 µg/mL. As for `O=S(=O)(Nc1cccc2ccccc12)c1ccc(NCc2cccc(Cl)c2O)cc1`, the kinetic solubility is less than 1 µg/mL.

In the case of `O=C(Nc1nc(-c2ccccc2)cs1)c1ccncc1NS(=O)(=O)c1ccc2ccccc2c1`, the kinetic solubility is less than 1 µg/mL. The same measure for `CC(C)c1ccccc1-c1ncc(F)c(NC2(c3ccc(-c4cccnc4)cc3)CC2)n1`: less than 1 µg/mL; for `COc1ccc2nc(C)cc(Nc3ccc(Cl)c(Cl)c3)c2c1`: less than 1 µg/mL; for `O=C1C(c2ccc(C(F)(F)F)cc2)=C(Nc2ccc(Cl)cc2)c2ccccc21`: less than 1 µg/mL. `Cc1cccc(-n2cnc3cc(C(=O)N4CCCC(C)C4)ccc32)c1` (stereo not drawn) yielded a solubility (kinetic) of 26.4 µg/mL (≈ 79.3 µM). The same measure for `COc1cc2ncnc(Oc3cccc(NC(=O)Nc4cc(C(C)(C)C(F)(F)F)on4)c3)c2cc1OC`: 8.62 µg/mL (≈ 16.7 µM); for `Clc1ccccc1Nc1nc(-c2ccncc2)nc2ccccc12`: less than 1 µg/mL; for `CN1C(=O)c2ccccc2[S@](=O)c2ccc(C(=O)NCCc3cccs3)cc21`: 45.9 µg/mL (≈ 112 µM).

On to `Cc1ccccc1C(=O)N1CCc2cc(-c3nc(NC(=O)CC4CCCCC4)sc3C)ccc21`, for which the kinetic solubility is less than 1 µg/mL.

In turn, `Cc1ccc(C2=CSC(NC(=O)CSc3nncn3C)=NN2)cc1` gave a kinetic solubility of more than 53 µg/mL. `Fc1ccc(CNc2nc(-c3ccncc3)nc3ccccc23)cc1F` returned a kinetic solubility of less than 1 µg/mL.

On to `N#Cc1ccc(-c2ccc(CNc3ccc(C4CCNCC4)cc3)o2)cc1`, for which the solubility (kinetic) was 35.2 µg/mL (≈ 98.6 µM). `Cc1ccc(S(=O)(=O)n2cc(C(=O)Nc3ccc(-c4ccccc4)cc3)c3ccccc32)cc1`: the solubility (kinetic) is less than 1 µg/mL. `O=C(c1ccco1)N1CCN(c2nc(-c3ccc(Br)cc3)cs2)CC1` had a kinetic solubility of 2.3 µg/mL (≈ 5.5 µM).

`Cc1ccc(-n2nc3c(=O)n(CCCC(=O)NCc4ccccc4F)nc(C)c3c2C)cc1` yielded a solubility (kinetic) of 4.17 µg/mL (≈ 9.32 µM). Compound `Cn1c(=O)c2c(-c3ccc(Br)cc3)n(CCc3ccccc3)cc2n(C)c1=O` gave a solubility (kinetic) of 14.7 µg/mL (≈ 33.5 µM). The compound `CCc1ccc(NC(=O)c2[nH]c(C)c(C(C)=O)c2C)cc1S(=O)(=O)Nc1ccc(C#N)cc1` gave a solubility (kinetic) of 2.19 µg/mL (≈ 4.72 µM). Consider `CSc1ncc(Cl)c(C(=O)Nc2c(C)cccc2C)n1`, for which the kinetic solubility came out at 1.91 µg/mL (≈ 6.19 µM). Turning to `O=c1ncn2nc(Sc3ccc(F)cc3F)ccc2c1-c1c(Cl)cccc1Cl`, the kinetic solubility was more than 100 µg/mL. The same measure for `Cc1ccnc(NC(=S)N2CCCC(Nc3cccc(C(F)(F)F)c3)C2)c1` (stereo not drawn): 11.6 µg/mL (≈ 29.5 µM); for `COCC(C)Nc1ncnc2c1cnn2-c1ccc(C)c(C)c1` (stereo not drawn): 5.58 µg/mL (≈ 17.9 µM). For the compound `COc1ccc(C2Nc3ccccc3C(=O)N2Cc2ccco2)cc1` (stereo not drawn), the kinetic solubility was 12.2 µg/mL (≈ 36.4 µM). In the case of `Cc1cc(-c2nc(Nc3ccc(F)c(F)c3)c3ccccc3n2)cc(C)n1`, the solubility (kinetic) is less than 1 µg/mL. In turn, `Cc1ccc(S(=O)(=O)Nc2ccccc2C(=O)Nc2nc(-c3ccccc3)cs2)cc1` came in with a solubility (kinetic) of less than 1 µg/mL. Compound `O=C1Nc2ccccc2/C1=C/c1cccc(C(=O)O)c1` yielded a kinetic solubility of more than 39 µg/mL. `CCC(=O)NC(c1ccc(OC)cc1)c1cc(Cl)c2cccnc2c1O` (stereo not drawn) registered a solubility (kinetic) of less than 1 µg/mL.

For `COc1cccc(CNc2ccc([S+](=O)([O-])Nc3cc4ccccc4s3)cc2)c1O`, the kinetic solubility was less than 1 µg/mL.

`CCCCCOc1ccccc1/C(=C\SC)n1ccnc1` came in with a solubility (kinetic) of less than 1 µg/mL.

As to `Cc1ccc(NS(=O)(=O)c2ccc3c(c2)NC(=O)CO3)cc1C`, the solubility (kinetic) is 7.82 µg/mL (≈ 23.5 µM). In the case of `COc1ccc(CN2CCNc3cc(Nc4ccccc4)ncc3C2)cc1`, the kinetic solubility worked out at 45.4 µg/mL (≈ 126 µM).

Consider `COc1ccc2[nH]c(=O)c(-c3noc(-c4cccs4)n3)cc2c1`, for which the solubility (kinetic) is less than 1 µg/mL. In turn, `CCOC(=O)N1CCc2c(sc(NCc3ccc(N(C)C)cc3)c2C(=O)Nc2ccc(OC)cc2)C1` came in with a solubility (kinetic) of 2 µg/mL (≈ 3.93 µM). The compound `COCCNCc1ccc(-c2cc3nccc(Oc4ccc(NC(=S)NC(=O)Cc5ccc(F)cc5)cc4F)c3s2)nc1` displayed a kinetic solubility of less than 1 µg/mL.

`Cc1ccc(S(=O)(=O)Nc2cnccc2C(=O)Nc2nc(-c3cc(Br)cs3)cs2)cc1` came in with a kinetic solubility of 0.958 µg/mL (≈ 1.79 µM).

As to `O=C(Cc1cccs1)NCc1nnc2ccc(-c3ccccc3)nn12`, the solubility (kinetic) came out at 22 µg/mL (≈ 63 µM). As for `Cc1cnccc1-c1nc(Nc2ccc(F)c(F)c2)c2ccccc2n1`, the kinetic solubility stood at 1.43 µg/mL (≈ 4.09 µM).

Regarding `CCN(CC)[S+](=O)([O-])c1cc(NC(=O)c2[nH]c(C)c(C(C)=O)c2C)ccc1OC`, the kinetic solubility is 18.1 µg/mL (≈ 43 µM). Turning to `O=C(NCCCCc1ccccc1)C1CCN(c2nc(-c3ccc(Br)cc3)cs2)CC1`, the solubility (kinetic) stood at 7.06 µg/mL (≈ 14.2 µM). In the case of `CCOC(=O)C1CCN(c2ncc(-c3ccc4c(c3)OCCCO4)s2)CC1` it was less than 1 µg/mL; in that of `Cc1ccc(S(=O)(=O)Nc2ccc(OC(F)(F)F)cc2C(=O)Nc2nc(-c3ccccc3)cs2)cc1`, less than 1 µg/mL; in that of `COc1c(O)cc2c(c1OC)-c1ccc(SC)c(=O)cc1C(NC(C)=O)CC2` (stereo not drawn), more than 59 µg/mL. `CC(=O)c1c(C)[nH]c(C(=O)Nc2cccc([S+](=O)([O-])N3CC[C@@H](F)C3)c2)c1C` displayed a solubility (kinetic) of 23.3 µg/mL (≈ 57.1 µM). Take `Cc1ccc(CN2CCOC[C@H]2c2ncc(-c3cccc(F)c3)[nH]2)cc1`: the solubility (kinetic) turned out to be 10.4 µg/mL (≈ 29.7 µM). In turn, `CC(=O)c1ccc(N[S+](=O)([O-])c2cccc(NC(=O)c3[nH]c(C)c(C(C)=O)c3C)c2)cc1` gave a solubility (kinetic) of 21.3 µg/mL (≈ 47 µM). The compound `Cc1ccccc1C(=O)N1CCc2cc(-c3nc(NC(=O)Cc4ccc5c(c4)OCO5)sc3C)ccc21` returned a kinetic solubility of less than 1 µg/mL.
